For this experiment, the target named is T1, NLRP3 (Homo sapiens, UniProt Q96P20).
T1 construct: Seed THP-1 cells (5.56*10^5 cells/mL) containing 1.0 ug/mL LPS; endogenous in cells; host or cells: THP-1 cells
Description: THP-1 LPS/nigericin IL1β release (pyroptosis assay), HTRF. Format: cell-based. The conditions noted are these: NLRP3 inhibitory activity; THP-1 cells, 1.0 ug/mL LPS, compound 3 hrs, nigericin 5 uM 1 hr, IL1β in supernatant. As to the method:
The following method was used for compound screening. • 1. Seed THP-1 cells (5.56*10^5 cells/mL) containing 1.0 ug/mL LPS (SIGMA, L6529) in 45 uL RPMI 1640 medium (without FBS) into 384-well plate (Thermo Scientific, 164688). • 2. Add 5 uL compound (10 doses starting from 5 uM, 1:3 dilution) or vehicle (0.05% DMSO in medium) to the appropriate wells. • 3. Centrifuge the plates at 1000 rpm for 2 mins and incubate for 3 hrs at 37° C., 5% CO2. • 4. Add 5 uL nigericin (MEC, HY-100381) (final conc. 5 uM) to sample wells and positive control wells; add 5 uL RPMI 1640 medium to negative control wells. • 5. Centrifuge plates at 1000 rpm for 2 mins and incubate for 1 hr at 37° C., 5% CO2. • 6. At the end of the incubation period, centrifuge plates at 1000 rpm for 6 mins and transfer 8 uL supernatant into 384-well assay plates (PerkinElmer, 6008280). • 7. Add 8 ul RPMI 1640 medium into each well and spin down for 10 secs. • 8. Prepare the standard solutions and pre-mixed IL1β antibodie solution of Human IL1β kits (PerkinElmer, 62HIL1BPEH) according to the instruction. • 9. Add 16 uL standard solutions into clear wells of 384-well assay plates. • 10. Add 4 uL pre-mixed IL1β antibodie solution to all wells including sample wells, positive control wells, negative control wells and standard solutions wells. • 11. Seal the plates, spin down for 10 secs, incubation for overnight at RT and read on an HTRF® compatible reader (BMG LABTECH, PHERAstar FS). • 12. The concentrations of IL1β for treated wells are calculated by the standard curve. • 13. The IC50 data is fitted to a non-liner regression equation (log inhibitor vs. response—Variable slope four parameters)).
A general note: Time-resolved FRET reads energy transfer from a long-lived donor to a nearby acceptor.

T1 sequence (Q96P20 whole entry): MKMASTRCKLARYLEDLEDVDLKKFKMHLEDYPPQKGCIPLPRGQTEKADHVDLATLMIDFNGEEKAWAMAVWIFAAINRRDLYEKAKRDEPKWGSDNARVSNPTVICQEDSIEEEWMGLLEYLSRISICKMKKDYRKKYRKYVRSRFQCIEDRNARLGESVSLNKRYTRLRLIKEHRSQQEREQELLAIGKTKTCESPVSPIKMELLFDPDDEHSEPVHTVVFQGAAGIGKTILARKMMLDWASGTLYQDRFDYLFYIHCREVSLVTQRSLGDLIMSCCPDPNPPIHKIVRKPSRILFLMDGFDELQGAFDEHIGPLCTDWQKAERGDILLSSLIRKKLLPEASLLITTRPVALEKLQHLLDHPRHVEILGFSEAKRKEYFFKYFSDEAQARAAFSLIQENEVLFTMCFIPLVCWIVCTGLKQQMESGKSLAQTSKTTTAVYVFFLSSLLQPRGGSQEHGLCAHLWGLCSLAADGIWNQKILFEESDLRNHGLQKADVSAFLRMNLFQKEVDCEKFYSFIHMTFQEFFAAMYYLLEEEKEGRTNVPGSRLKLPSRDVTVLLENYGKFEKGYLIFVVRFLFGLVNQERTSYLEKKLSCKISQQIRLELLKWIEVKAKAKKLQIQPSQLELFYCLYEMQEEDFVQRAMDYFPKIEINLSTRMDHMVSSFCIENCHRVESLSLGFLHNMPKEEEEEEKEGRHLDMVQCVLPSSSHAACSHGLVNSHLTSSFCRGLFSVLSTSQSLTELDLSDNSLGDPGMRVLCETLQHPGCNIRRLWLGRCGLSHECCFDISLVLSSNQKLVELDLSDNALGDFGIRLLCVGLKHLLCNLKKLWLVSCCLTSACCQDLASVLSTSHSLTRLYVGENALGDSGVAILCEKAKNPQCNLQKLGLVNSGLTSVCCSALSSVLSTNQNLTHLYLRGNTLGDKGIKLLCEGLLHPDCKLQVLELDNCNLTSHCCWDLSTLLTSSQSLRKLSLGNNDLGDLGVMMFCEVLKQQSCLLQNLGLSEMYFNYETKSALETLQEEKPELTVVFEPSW

For orientation: IC50 means the concentration at which inhibition is half-maximal. Read a high IC50 as weaker potency. In turn, `O=C(Nc1c(-c2ccn3nccc3c2)ccc2c1CCC2)NS(=O)(=O)c1cc2n(n1)CCO[C@@H]2C1CC1` (single isomer, unassigned) [Example 1] returned an IC50 of no more than 100 nM.
Molecule `O=C(Nc1c(-c2ccc3ccnn3c2)ccc2c1CCC2)NS(=O)(=O)c1cc2n(n1)CCO[C@@H]2C1CC1` (single isomer, unassigned) [Example 2] came in with a half-inhibitory concentration (IC50) of 100 to 500 nM.
In the case of `O=C(Nc1c(-c2ccn3nncc3c2)ccc2c1CCC2)NS(=O)(=O)c1cc2n(n1)CCO[C@@H]2C1CC1` (single isomer, unassigned) [Example 3], the IC50 is no more than 100 nM.
In turn, `O=C(Nc1c(-c2ccc3ncnn3c2)ccc2c1CCC2)NS(=O)(=O)c1cc2n(n1)CCO[C@@H]2C1CC1` (single isomer, unassigned) [Example 4] displayed an IC50 of 100 to 500 nM.
As to `O=C(Nc1c(-c2ccn3nccc3c2)ccc2c1CCC2)NS(=O)(=O)c1cc2n(n1)CCO[C@H]2C1CC1` (single isomer, unassigned) [Example 5], the IC50 was no more than 100 nM.
Then `O=C(Nc1c(-c2ccc3ccnn3c2)ccc2c1CCC2)NS(=O)(=O)c1cc2n(n1)CCO[C@H]2C1CC1` (single isomer, unassigned) [Example 6], with 100 to 500 nM; and `O=C(Nc1c(-c2ccn3nncc3c2)ccc2c1CCC2)NS(=O)(=O)c1cc2n(n1)CCO[C@H]2C1CC1` (single isomer, unassigned) [Example 7], with 100 to 500 nM; and `O=C(Nc1c(-c2ccc3ncnn3c2)ccc2c1CCC2)NS(=O)(=O)c1cc2n(n1)CCO[C@H]2C1CC1` (single isomer, unassigned) [Example 8], with 100 to 500 nM.
`Cc1cc2c(c(NC(=O)NS(=O)(=O)c3cc4n(n3)CCO[C@@H]4C3CC3)c1-c1ccn3nccc3c1)CCC2` (single isomer, unassigned) [Example 9] showed a half-maximal inhibitory concentration (IC50) of no more than 100 nM.
`O=C(Nc1c(-c2ccn3cncc3c2)ccc2c1CCC2)NS(=O)(=O)c1cc2n(n1)CCO[C@@H]2C1CC1` (single isomer, unassigned) [Example 10] returned an IC50 of 100 to 500 nM.
In turn, `O=C(Nc1c(-c2ccn3ccnc3c2)ccc2c1CCC2)NS(=O)(=O)c1cc2n(n1)CCO[C@@H]2C1CC1` (single isomer, unassigned) [Example 11] came in with an IC50 of 100 to 500 nM.
Molecule `O=C(Nc1c(-c2ccc3cncn3c2)ccc2c1CCC2)NS(=O)(=O)c1cc2n(n1)CCO[C@@H]2C1CC1` (single isomer, unassigned) [Example 12] had a concentration for half-maximal inhibition (IC50) of 100 to 500 nM.
The molecule `O=C(Nc1c(-c2ccn3ncnc3c2)ccc2c1CCC2)NS(=O)(=O)c1cc2n(n1)CCO[C@@H]2C1CC1` (single isomer, unassigned) [Example 13] gave a concentration for half-maximal inhibition (IC50) of 100 to 500 nM.
Molecule `O=C(Nc1c(-c2ccc3nncn3c2)ccc2c1CCC2)NS(=O)(=O)c1cc2n(n1)CCO[C@@H]2C1CC1` (single isomer, unassigned) [Example 14] yielded a concentration for half-maximal inhibition (IC50) of 500 to 1000 nM.
On to `Cc1cc2c(c(NC(=O)NS(=O)(=O)c3cc4n(n3)CCO[C@@H]4C3CC3)c1-c1ccn3ccnc3c1)CCC2` (single isomer, unassigned) [Example 15], for which the 50% inhibitory concentration (IC50) is no more than 100 nM.
`O=C(Nc1c(-c2ccn3nccc3c2)ccc2c1CCC2)NS(=O)(=O)c1cc2n(n1)C(C1CC1)COC2` (centres unmarked) [Example 16, 7-cyclopropyl-N-((5-(pyrazolo[1,5-a]pyridin-5-yl)-2,3-dihydro-1H-inden-4-yl)carbamoyl)-6,7-dihydro-4H-pyrazolo[5,1-c][1,4]oxazine-2-sulfonamide] came in with a 50% inhibitory concentration (IC50) of 100 to 500 nM.
Then `Cc1cc2c(c(NC(=O)NS(=O)(=O)c3cc4n(n3)CCOC43CCC3)c1-c1ccn3nccc3c1)CCC2` [Example 17, N-((6-methyl-5-(pyrazolo[1,5-a]pyridin-5-yl)-2,3-dihydro-1H-inden-4-yl)carbamoyl)-6′,7′-dihydrospiro[cyclobutane-1,4′-pyrazolo[5,1-c][1,4]oxazine]-2′-sulfonamide], with no more than 100 nM.

These data come from patent publication US12338255B2, “Bicyclic substituted sulfonylurea compounds as inhibitors of interleukin-1 activity” (Viva Star Biosciences (Suzhou) Co., Ltd., priority 2022, dated 2025).
